We go through 17 molecules from patent publication US4863906A, “2'-deoxy-5-ethynyluridine-3',5'-diestens for treatment of VZV and CMV infections” (Burroughs Wellcome Co., priority 1985, dated 1989).

The subject of data set [1] is Human cytomegalovirus (HCMV). The experiment in a line: HCMV plaque reduction assay in MRC5 or Detroit 532 cells. The data set is classed as cell-based. As to conditions: Human betaherpesvirus 5, MRC5, MRC5 or Detroit 532 cells. How it is done: (§1) Human cytomegalovirus (HCMV) was assayed in monolayers of either MRC5 cells (human embryonic lung) or Detroit 532 cells (human foreskin fibroblasts) in multiwell trays. Activity of compounds was determined in the plaque reduction assay, in which a cell monolayer was infected with a suspension of HCMV, and then overlaid with nutrient agarose in the form of a gel to ensure that there was no spread of virus throughout the culture. A range of concentrations of compound of known molarity was incorporated in the nutrient agarose overlay. Plaque numbers at each concentration were expressed as percentages of the control and a dose-response curve was drawn. From this curve the 50% inhibitory concentration (IC50) was estimated.
(Plaques are areas of infected cells; plaque reduction assays count them against a control.)

Data set [2] concerns Varicella zoster virus (VZV). The experiment in a line: VZV assay in MRC5 cells (similar to HCMV plaque reduction, without agarose overlay). The data set is classed as cell-based. How it is done: as §1
Varicella zoster virus (VZV) was assayed in MRC5 cells by a similar method to that for HCMV with the omission of the agarose overlay.

For data set [3], the system named is Herpes simplex type 1 (HSV1). Kind of data set: HSV1 assay in Vero cells (similar to HCMV plaque reduction assay). As to conditions: read-out: IC50 HSV1. The data set is classed as cell-based. How it is done:
as §1
Herpes simplex type 1 (HSV1) was assayed in Vero cells in a similar method to that described for the HCMV assay.

The nature of data set [4]: Cell toxicity: cell growth inhibition assay in Vero cells (MTT uptake). Format: cell-based. Particulars: monkey, 50% inhibition of cell viability at 96 hours, read-out: CCID50 at 96 hr. How it is done:
Cell toxicity was assessed in a cell growth inhibition assay. Subconfluent cultures of Vero cells grown on 96-well microtiter dishes were exposed to different dilutions of drug, and cell viability determined daily on replicate cultures using uptake of a tetrazolium dye (MTT). The concentration required for a 50% inhibition of cell viability at 96 hours is termed CCID50.

The test system of another data set is certain DNA viruses. The experiment in a line: Antiviral activity against certain DNA viruses (general statement). As to conditions: DNA viruses other than vaccinia and herpes simplex.
In a further data set the test system is vaccinia. Particulars: Walker et al. 1978; UK 1 601 020; cited from earlier work.
The test system of the next data set is herpes simplex viruses. As to conditions: Walker et al. 1978; UK 1 601 020; cited from earlier work.
Where [5] appears, read: Human alphaherpesvirus 3, MRC5, MRC5 cells, read-out: IC50 VZV.
Setting [6] is: Human alphaherpesvirus 1, Vero cells.

pIC50: −log10 of the molar value. Where two headings read alike, the source gives them in different places.

In general, pIC50 refers to −log10 of the IC50, conventionally taken in molar units.

In the case of `C#Cc1cn([C@H]2C[C@H](OS(C)(=O)=O)[C@@H](COS(C)(=O)=O)O2)c(=O)[nH]c1=O` [Methanesulphonyl/Methanesulphonyl, 2'-Deoxy-3'-5'-di-O-methanesulphonyl-5-ethynyluridine], the pIC50 is less than 4.30 in data set [1], 4.80 in data set [2] (setting [5]) and less than 4.70 in data set [3] (setting [6]).
Regarding `C#Cc1cn([C@H]2C[C@H](O)[C@@H](COC(=O)C(C)(C)C)O2)c(=O)[nH]c1=O` [H/Pivaloyl, 2'-Deoxy-5-ethynyl-5'-O-pivaloyluridine], the pIC50 is 6.40 in data set [1], 6.22 in data set [2] (setting [5]) and less than 4.70 in data set [3] (setting [6]). The CC50 at 96 h in data set [4] (vero cells) stood at 10.2 µM.
For the molecule `C#Cc1cn([C@H]2C[C@H](OC(=O)c3ccc(C)cc3)[C@@H](COC(=O)c3ccc(C)cc3)O2)c(=O)[nH]c1=O` [p-Toluoyl/p-Toluoyl, 2'-Deoxy-3',5'-di-O-p-toluoyl-5-ethynyluridine], the negative logarithm of the IC50 (pIC50) in data set [2] (setting [5]) and in data set [3] (setting [6]) was less than 4.70 in each case. Moreover, the CC50 at 96 h in data set [4] (vero cells) was more than 100 µM.
`C#Cc1cn([C@H]2C[C@H](O)[C@@H](CO)O2)c(=O)[nH]c1=O` [H/H, 2'-Deoxy-5-ethynyluridine]: the negative-log IC50 (pIC50) in data set [2] (Human alphaherpesvirus 3, MRC5, read-out: IC50 VZV) was 6.52 to 7.22; in data set [3] (Human alphaherpesvirus 1, Vero), 5.35. Further, the CC50 at 96 h in data set [4] lay in the range of 0.3 to 3 µM. Also, in the data set with certain DNA viruses, the “Activity against certain DNA viruses” value is “very potent activity”. Moreover, in the data set with vaccinia, the Activity against vaccinia entry was “only moderate activity”. Also, the “Activity against herpes simplex viruses” value with herpes simplex viruses is on record as “only moderate activity”.
Regarding `C#Cc1cn([C@H]2C[C@H](OC(=O)c3cccc(Cl)c3)[C@@H](COC(=O)c3cccc(Cl)c3)O2)c(=O)[nH]c1=O` [m-Cl Benzoyl/m-Cl Benzoyl], the values for the pIC50 in data set [1] and in data set [2] (setting [5]) were 5.57 and 5.96, respectively. Further, the CC50 at 96 h in data set [4] (vero cells) was more than 100 µM.
Take `C#Cc1cn([C@H]2C[C@H](O)[C@@H](COC(=O)C3CC3)O2)c(=O)[nH]c1=O` [H/Cyclopropanoyl, 5'-O-Cyclopropanoyl-2'-deoxy-5-ethynyluridine]: the negative logarithm of the IC50 (pIC50) in data set [1] is 6.05; in data set [2] (setting [5]), 5.19; in data set [3] (setting [6]), less than 4.70. The CC50 at 96 h in data set [4] (vero cells) worked out at 15 µM.
On to `C#Cc1cn([C@H]2C[C@H](O)[C@@H](COC(=O)c3cccc(Cl)c3)O2)c(=O)[nH]c1=O` [H/m-Cl Benzoyl], for which the values for the pIC50 in data set [1] and in data set [2] (setting [5]) were 6.34 and more than 6.70, respectively. In addition, the CC50 at 96 h in data set [4] (vero cells) is 19 µM.
Regarding `C#Cc1cn([C@H]2C[C@H](O)[C@@H](COC(=O)c3ccccc3)O2)c(=O)[nH]c1=O` [H/Benzoyl, 5'-O-Benzoyl-2'-deoxy-5-ethynyluridine], the pIC50 in data set [1] was 6.52; in data set [2] (setting [5]), 6.15; in data set [3] (setting [6]) it was less than 4.70. For the same molecule, in data set [4] (vero cells), the CC50 at 96 h came to 1.3 µM.
For the molecule `C#Cc1cn([C@H]2C[C@H](OC(C)=O)[C@@H](COC(C)=O)O2)c(=O)[nH]c1=O` [Acetyl/Acetyl, 2'-Deoxy-3'-5'-di-O-acetyl-5-ethynyluridine], the pIC50 in data set [3] (setting [6]) was less than 4.70.
For the molecule `C#Cc1cn([C@H]2C[C@H](O)[C@@H](COC(=O)CCCCCCC)O2)c(=O)[nH]c1=O` [H/Octanoyl, 2'-Deoxy-5-ethynyl-5'-O-octanoyluridine], the negative-log IC50 (pIC50) in data set [1] is 5.66; in data set [2] (setting [5]) it was more than 6.70. In data set [4] (vero cells), the CC50 at 96 h stood at 1.8 µM.
On to `C#Cc1cn([C@H]2C[C@H](O)[C@@H](COC(=O)c3ccc(C)cc3)O2)c(=O)[nH]c1=O` [H/p-Toluoyl, 2'-Deoxy-5-ethynyl-5'-O-toluoyluridine], for which the values for the pIC50 in data set [1], in data set [2] (setting [5]) and in data set [3] (setting [6]) were 5.47, less than 4.70 and less than 4.70, respectively. The CC50 at 96 h in data set [4] (vero cells) stood at 0.8 µM.
As to `C#Cc1cn([C@H]2C[C@H](O)[C@@H](COC(=O)c3ccc(OC)cc3)O2)c(=O)[nH]c1=O` [H/p-Anisoyl, 5'-O-p-Anisoyl-2'-Deoxy-5-ethynyluridine], the pIC50 in data set [1] is 5.43 to 5.55; in data set [2] (setting [5]), less than 4.70; in data set [3] (setting [6]), less than 4.70. For the same molecule, the CC50 at 96 h in data set [4] (vero cells) worked out at 3 µM.
Consider `C#Cc1cn([C@H]2C[C@H](O)[C@@H](COS(=O)(=O)c3ccc(C)cc3)O2)c(=O)[nH]c1=O` [H/p-Tosyl], for which, in data set [1], the pIC50 was 5.25.
For `C#Cc1cn([C@H]2C[C@H](OC(=O)C(C)(C)C)[C@@H](COC(=O)C(C)(C)C)O2)c(=O)[nH]c1=O` [Pivaloyl/Pivaloyl, 2'-Deoxy-5-ethynyl-3',5'-di-O-pivaloyl uridine], the negative logarithm of the IC50 (pIC50) in data set [1] was 5.70; in data set [2] (setting [5]), 5.26; in data set [3] (setting [6]), less than 4.70. Besides, in data set [4] (vero cells), the CC50 at 96 h is more than 100 µM.
The matching figures for `C#Cc1cn([C@H]2C[C@H](OC(=O)C3CC3)[C@@H](COC(=O)C3CC3)O2)c(=O)[nH]c1=O` [Cyclopropanoyl/Cyclopropanoyl, 2'-Deoxy-3',5'-di-O-cyclopropanoyl-5-ethynyluridine]: 5.70, 4.62, less than 4.70 and more than 100 µM.
The matching figures for `C#Cc1cn([C@H]2C[C@H](OC(=O)c3ccc(OC)cc3)[C@@H](COC(=O)c3ccc(OC)cc3)O2)c(=O)[nH]c1=O` [p-Anisoyl/p-Anisoyl, 2'-Deoxy-3',5'-di-O-p-anisoyl-5-ethynyluridine]: 4.68, less than 4.70, less than 4.70 and more than 100 µM.
As for `C#Cc1cn([C@H]2C[C@H](OC(=O)c3ccccc3)[C@@H](COC(=O)c3ccccc3)O2)c(=O)[nH]c1=O` [Benzoyl/Benzoyl, 2'-Deoxy-3',5'-di-O-benzoyl-5-ethynyluridine], the negative-log IC50 (pIC50) in data set [1] is 5.33; in data set [2] (setting [5]) it was less than 4.70; in data set [3] (setting [6]), less than 4.70. Moreover, the CC50 at 96 h in data set [4] (vero cells) was more than 100 µM.
